In US20100075852A1, “HERBICIDE COMBINATION COMPRISING DIMETHOXYTRIAZINYL-SUBSTITUTED DIFLUOROMETHANESULFONYLANILIDES” (BAYER CROPSCIENCE AG, priority 2008, published 2010):
Read-outs that look alike come from different tables or passages of the source.

What was measured:
Test in all cases: Post-emergence action against weeds, greenhouse pot test, visual scoring
Assay type in all cases: in vivo
[1] = test system: Abuthilon theophrasti (ABUTH); settings: 21 DAT, rate (5) A-1 12
Description: (§1) Seeds or rhizome pieces of mono- and dicotyledonous harmful and useful plants were placed in peat pots (diameter 4 cm) filled with sandy loam and then covered with soil. The pots were kept in a greenhouse under optimum conditions. In addition, harmful plants encountered in paddy rice cultivation were cultivated in pots with a water level 2 cm above the soil surface.
(§2) About three weeks after the start of the cultivation, the test plants were treated at the 2- to 3-leaf stage. The herbicides, formulated as powder or liquid concentrates, were, either alone or in the combinations according to the invention, sprayed in various dosages on to the green parts of the plants using an application rate of 600 l of water/ha (converted). For further cultivation of the plants, the pots were then again kept under optimum conditions in a greenhouse.
(§3) The visual scoring of the herbicidal effects was carried out in intervals up to 21 days after the treatment. Scoring was carried out in percent in comparison to the untreated control plants. 0%=no herbicidal activity, 100%=complete herbicidal activity=complete kill.
(§4) The percentages from the treatments with the herbicides alone (=individual application) and with the combinations according to the invention (=mixtures) were employed to calculate interactions using the method of Colby.
(§5) • A, B=activity of components A and B in percent at a dosage of a and b g of ai/ha (=gramm of active substance per hectare), respectively. • E=expected value in % at a dosage of a+b g of ai/ha.

Avena fatua (AVEFA) = settings: AVEFA; for inhibition at 4 g/ha / inhibition at 12 g/ha: Avena fatua, post-emergence, read-out: % activity found; for inhibition at 4 g/ha: 4 g of ai/ha alone; for inhibition at 12 g/ha: 12 g of ai/ha alone
Description: as §1, §2, §3, §4, §5

[2] = test system: Cyperus esculentus (CYPES); settings: CYPES, 21 DAT
Description: as §1, §2, §3, §4, §5

[3] = test system: Fallopia (ex Polygonum) convolvulus (POLCO); settings: POLCO, 21 DAT
Description: as §1, §2, §3, §4, §5

[4] = test system: Lolium multiflorum (LOLMU); settings: LOLMU; for inhibition at 4 g/ha / inhibition at 12 g/ha: Lolium multiflorum, post-emergence, read-out: % activity found; for inhibition at 4 g/ha: 4 g of ai/ha alone; for inhibition at 12 g/ha: 12 g of ai/ha alone
Description: as §1, §2, §3, §4, §5

[5] = test system: Matricaria inodora (MATIN); settings: MATIN, 21 DAT
Description: as §1, §2, §3, §4, §5

[6] = test system: Pharbitis purpurea (PHBPU); settings: 21 DAT
Description: as §1, §2, §3, §4, §5

Stellaria media (STEME) = settings: 10 DAT
Description: as §1, §2, §3, §4, §5

[7] = test system: Triticum aestivum (TRZAS); settings: for (7) activity found: rate (5) A-1 12; for inhibition at 4 g/ha / inhibition at 12 g/ha: Triticum aestivum, post-emergence, read-out: % activity found; for inhibition at 4 g/ha: 4 g of ai/ha alone; for inhibition at 12 g/ha: 12 g of ai/ha alone
Description: as §1, §2, §3, §4, §5

Veronica persica (VERPE) = settings: 21 DAT, rate (5) A-1 12
Description: as §1, §2, §3, §4, §5

Viola tricolor (VIOTR) = settings: for (7) activity found: rate (5) A-1 12
Description: as §1, §2, §3, §4, §5

Zea mays (ZEAMX) = settings: ZEAMX; for inhibition at 4 g/ha / inhibition at 12 g/ha: Zea mays, post-emergence, read-out: % activity found; for inhibition at 4 g/ha: 4 g of ai/ha alone; for inhibition at 12 g/ha: 12 g of ai/ha alone
Description: as §1, §2, §3, §4, §5

[8] = test system: Alopecurus myosuroides (ALOMY); settings: ALOMY, read-out: % activity found; for inhibition at 4 g/ha: 4 g of ai/ha alone; for inhibition at 12 g/ha: 12 g of ai/ha alone
Description: as §1, §2, §3
(§6) The percentages from the treatments with the herbicides alone (=individual application) and with the combinations according to the invention (=mixtures) were employed to calculate interactions using the method of Colby. When the observed efficacies of the mixtures exceed the formal sum of the values of the tests with individual applications, they also exceed the expected value according to Colby, which is calculated using the formula below (cf. S. R. Colby; in Weeds 15 (1967) pp. 20 to 22):
as §5

Oryza sativa (ORYSA) = settings: ORYSA, read-out: % activity found; for inhibition at 4 g/ha: 4 g of ai/ha alone; for inhibition at 12 g/ha: 12 g of ai/ha alone
Description: as §1, §2, §3, §6, §5

Setaria viridis (SETVI) = settings: 504 h, SETVI, 21 DAT, read-out: % activity found
Description: as §1, §2, §3, §6, §5

With `COc1nc(OC)nc(C(=O)c2cccc(F)c2N(C)S(=O)(=O)C(F)F)n1` [A-1] the “(7) activity found” value [1] was 85%, the “(7) activity found” value (Avena fatua (AVEFA); 21 DAT, rate (5) A-1 4) was 10% and the “(7) activity found” value (Avena fatua (AVEFA); 21 DAT, rate (5) A-1 12) was 30%. For the same molecule, the inhibition at 4 g/ha (Avena fatua (AVEFA); 240 h, 10 DAT) was 40%, the inhibition at 12 g/ha (Avena fatua (AVEFA); 240 h, 10 DAT) was 50% and the inhibition at 4 g/ha (Avena fatua (AVEFA); 504 h, 21 DAT) was 10%. The inhibition at 12 g/ha (Avena fatua (AVEFA); 504 h, 21 DAT) was 30%, the “(7) activity found” value ([2]; rate (5) A-1 4) was 80% and the “(7) activity found” value ([2]; rate (5) A-1 12) was 80%. The “(7) activity found” value ([2]; rate (5) A-1 12 (Table 85)) was 80%, the inhibition at 4 g/ha ([2]; Cyperus esculentus, post-emergence, 504 h, 4 g of ai/ha alone, read-out: % activity found) was 80% and the inhibition at 12 g/ha ([2]; Cyperus esculentus, post-emergence, 504 h, 12 g of ai/ha alone, read-out: % activity found) was 80%. The inhibition at 4 g/ha ([3]; Fallopia convolvulus, post-emergence, 504 h, 4 g of ai/ha alone, read-out: % activity found) was 75%, the inhibition at 12 g/ha ([3]; Fallopia convolvulus, post-emergence, 504 h, 12 g of ai/ha alone, read-out: % activity found) was 70% and the “(7) activity found” value ([3]; rate (5) A-1 4) was 75%. For the same molecule, the “(7) activity found” value ([3]; rate (5) A-1 12) was 70%, the “(7) activity found” value ([4]; 10 DAT, rate (5) A-1 4) was 0% and the “(7) activity found” value ([4]; 10 DAT, rate (5) A-1 12) was 10%. It also gave an inhibition at 4 g/ha ([4]; 240 h, 10 DAT) of 0%, an inhibition at 12 g/ha ([4]; 240 h, 10 DAT) of 10% and an inhibition at 4 g/ha ([4]; 504 h, 21 DAT) of 0%. The inhibition at 12 g/ha ([4]; 504 h, 21 DAT) was 10%, the “(7) activity found” value ([5]; rate (5) A-1 4) was 50% and the “(7) activity found” value ([5]; rate (5) A-1 12) was 60%. For the same molecule, the inhibition at 4 g/ha ([5]; Tripleurospermum inodorum, post-emergence, 504 h, 4 g of ai/ha alone, read-out: % activity found) was 50%, the inhibition at 12 g/ha ([5]; Tripleurospermum inodorum, post-emergence, 504 h, 12 g of ai/ha alone, read-out: % activity found) was 60% and the “(7) activity found” value ([6]; rate (5) A-1 4) was 60%. For the same molecule, the “(7) activity found” value ([6]; rate (5) A-1 12) was 65%, the “(7) activity found” value (Stellaria media (STEME); rate (5) A-1 4) was 70% and the “(7) activity found” value (Stellaria media (STEME); rate (5) A-1 12) was 70%. The “(7) activity found” value ([7]; 10 DAT) was 0%, the “(7) activity found” value ([7]; 21 DAT) was 0% and the inhibition at 4 g/ha ([7]; 240 h, 10 DAT) was 0%. It also gave an inhibition at 12 g/ha ([7]; 240 h, 10 DAT) of 0%, an inhibition at 4 g/ha ([7]; 504 h, 21 DAT) of 0% and an inhibition at 12 g/ha ([7]; 504 h, 21 DAT) of 0%. For the same molecule, the “(7) activity found” value (Veronica persica (VERPE)) was 40%, the “(7) activity found” value (Viola tricolor (VIOTR); 10 DAT) was 20% and the “(7) activity found” value (Viola tricolor (VIOTR); 21 DAT) was 10%. For the same molecule, the inhibition at 4 g/ha (Viola tricolor (VIOTR); Viola tricolor, post-emergence, 504 h, 21 DAT, 4 g of ai/ha alone, read-out: % activity found) was 0%, the inhibition at 12 g/ha (Viola tricolor (VIOTR); Viola tricolor, post-emergence, 504 h, 21 DAT, 12 g of ai/ha alone, read-out: % activity found) was 10% and the “(7) activity found” value (Zea mays (ZEAMX); 10 DAT, rate (5) A-1 4) was 0%. For the same molecule, the “(7) activity found” value (Zea mays (ZEAMX); 10 DAT, rate (5) A-1 12) was 0%, the “(7) activity found” value (Zea mays (ZEAMX); 21 DAT, rate (5) A-1 4) was 0% and the “(7) activity found” value (Zea mays (ZEAMX); 21 DAT, rate (5) A-1 4 (Table 80)) was 0%. For the same molecule, the “(7) activity found” value (Zea mays (ZEAMX); 21 DAT, rate (5) A-1 12) was 0%, the “(7) activity found” value (Zea mays (ZEAMX); 21 DAT, rate (5) A-1 12 (Table 80)) was 0% and the inhibition at 4 g/ha (Zea mays (ZEAMX); 240 h, 10 DAT) was 0%. The inhibition at 12 g/ha (Zea mays (ZEAMX); 240 h, 10 DAT) was 0%, the inhibition at 4 g/ha (Zea mays (ZEAMX); 504 h, 21 DAT) was 0% and the inhibition at 12 g/ha (Zea mays (ZEAMX); 504 h, 21 DAT) was 0%. The inhibition at 4 g/ha ([8]; 240 h, 10 DAT) was 40%, the inhibition at 12 g/ha ([8]; 240 h, 10 DAT) was 40% and the inhibition at 4 g/ha ([8]; 504 h, 21 DAT) was 40%. For the same molecule, the inhibition at 12 g/ha ([8]; 504 h, 21 DAT) was 50%, the inhibition at 4 g/ha (Oryza sativa (ORYSA); 240 h, 10 DAT) was 10% and the inhibition at 12 g/ha (Oryza sativa (ORYSA); 240 h, 10 DAT) was 10%. The inhibition at 4 g/ha (Oryza sativa (ORYSA); 504 h, 21 DAT) was 0%, the inhibition at 12 g/ha (Oryza sativa (ORYSA); 504 h, 21 DAT) was 10% and the inhibition at 4 g/ha (Setaria viridis (SETVI); 4 g of ai/ha alone) was 0%. For the same molecule, the inhibition at 12 g/ha (Setaria viridis (SETVI); 12 g of ai/ha alone) was 20%.
